Consider ten compounds from patent publication US10975101B2, “Ultra-potent vinca alkaloids: added molecular complexity further disrupts the tublin dimer-dimer interface” (priority 2016, dated 2021).

Each structure is given as a SMILES string. Several values for one entry are separate records, joined by “and”; a condition that tells them apart may be missing. Identical values can stand only once. Like-named read-outs stand apart in the source and are kept apart here.

In test [1] the test system is HCT116/VM46 (a vinblastine-resistant strain of HCT116) cells. To be noted: previously reported (footnote a, Barker et al. 2013) or background art table, cited from earlier work.
A further test has as its system tubulin. Description: BODIPY-vinblastine/tubulin competitive displacement assay. Type of test: binding. To be noted: tubulin 0.91 μM, BODIPY-VBL 1.8 μM, vinblastine analogue 18 μM, 37° C., average of 4 measurements ± SD. The procedure:
As a consequence, the commercially available BODIPY-vinblastine fluorescent probe was used to assess tubulin binding and develop its use in a direct competitive binding assay.^15 [(a) Jiang et al., Cancer Res. 1998, 58, 5389; (b) Zhang et al., PloS one 2009, 4, e4881; (c) Rai et al., PloS one 2012, 7, e44311 and (d) Rashid et al., Biochemistry 2015, 54, 2149.]
In carrying out this study, tubulin (0.1 mg/mL, 0.91 μM) was incubated with BODIPY-vinblastine (BODIPY-VBL, 1.8 μM) and a vinblastine analogue (18 μM) at 37° C. in PEM buffer containing 850 μM GTP. The BODIPY-VBL fluorescence intensity (FI) (ex: 480 nm, em: 514 nm) of 100 μL aliquots from each incubation were measured in a fluorescence micro-plate reader at 37° C. Control studies were performed with BODIPY-VBL (control 1) in the absence of a competitive ligand (maximum FI enhancement due to tubulin binding) and (control 2) in the absence of tubulin (no FI enhancement due to tubulin binding). % BODIPY-VBL displacement was calculated by the formula (control 2 FI−experiment FI)/(control 2 FI−control 1 FI)×100. Reported values are the average 4 measurements±the standard deviation.
100 μL of 1 mg/mL tubulin in PEM and 25 μL of 72 μM BODIPY-VBL in DMSO were added to 850 μL of buffer (PEM+1 mM GTP). The solution was incubated at 37° C. for 15 minutes, after which 25 μL of 720 μM competitive ligand in DMSO was added. The solution was incubated for an additional 60 minutes at 37° C., after which 100 μL aliquots of each incubation were transferred into the wells of a 96-well plate (warmed to 37° C. in the plate reader). The BODIPY-vinblastine fluorescence intensity was measured (Ex 480 nm, Em 514 nm, Cutoff 495 nm) at 37° C. Control measurements were performed with BODIPY-VBL (control 1) in the absence of a competitive ligand (maximum FI enhancement due to tubulin binding) and (control 2) in the absence of tubulin (no FI enhancement due to tubulin binding). % BODIPY-VBL displacement was calculated by the formula (Control 2 FI−Experiment FI)/(Control 2 FI−Control 1 FI)×100. PEM: 80 mM PIPES-K pH 6.8, 2 mM MgSO4, 0.5 mM EGTA pH 6.8.

The subject of test [2] is L1210 (mouse lymphocytic leukemia) cells. To be noted: previously reported in Barker et al., ACS Med. Chem. Lett. 2013, 4, 985; cited from earlier work.
Test [3] relates to HCT116 (human colorectal carcinoma) cells. To be noted: previously reported (footnote a, Barker et al. 2013) or background art table, cited from earlier work.
The subject of test [4] is L1210 (mouse lymphocytic leukemia) cells. Description: Cell growth inhibition assay, L1210. Type of test: cell-based. Particulars: 72 hours incubation, phosphatase assay. The procedure:
(§1) Compounds were tested for their cell growth inhibition of L1210 (ATCC no. CCL-219, mouse lymphocytic leukemia) cells, HCT116 (ATCC no. CCL-247, human colorectal carcinoma) cells, and HCT116/VM46 (a vinblastine-resistant strain of HCT116) cells in culture. A population of cells (>1×10^6 cells/mL as determined with a hemocytometer) was diluted with an appropriate amount of Dulbecco's Modified Eagle Medium (DMEM, Gibco) containing 10% fetal bovine serum (FBS, Gibco) to a final concentration of 30000 cells/mL.
(§2) To each well of a 96-well plate (Corning Costar), 100 μL of the cell media solution was added with a multichannel pipet. The cultures were incubated at 37° C. in an atmosphere of 5% CO2 and 95% humidified air for 24 hours. The test compounds were added to the plate as follows: test substances were diluted in DMSO to a concentration of 1 mM and 10-fold serial dilutions were performed on a separate 96-well plate. Fresh culture medium (100 μL) was added to each well of cells to constitute 200 μL of medium per well followed by 2 μL of each test agent. Compounds were tested in duplicate (n=2-18 times) at six concentrations between 0-1000 nM or 0-10000 nM. Following addition, cultures were incubated for an additional 72 hours.
(§3) A phosphatase assay was used to establish the IC50 values as follows: the media in each cell was removed and 100 μL of phosphatase solution (100 mg phosphatase substrate in 30 mL of 0.1 M NaOAc, pH 5.5, 0.1% Triton X-100 buffer) was added to each well. The plates were incubated at 37° C. for either 5 minutes (L1210) or 15 minutes (HCT116 and HCT116/VM46). After the given incubation time, 50 μL of 0.1 N NaOH was added to each well and the absorption at 405 nm was determined using a 96 well plate reader. As the absorption is directly proportional to the number of living cells, the IC50 values were calculated and the reported values represent of the average of 4-36 determinations (SD±10%).

For test [5], the system named is HCT116 (human colorectal carcinoma) cells. Briefly: cells. In kind it is cell-based. The procedure:
as §1, §2, §3

In test [6] the test system is HCT116/VM46 (a vinblastine-resistant strain of HCT116) cells. Briefly: Cell growth inhibition assay, HCT116/VM46. In kind it is cell-based, human. To be noted: for IC50: 72 hours incubation, phosphatase assay, Pgp-overexpressing resistant line; for increase in potency relative to vinblastine, HCT116/VM46: resistant line. The procedure: as §1, §2, §3
The subject of test [7] is vinblastine sensitive tumor cell lines (L1210 and HCT116). Description: Cell growth inhibition, vinblastine-sensitive lines stated together. Type of test: cell-based. Particulars: for more potent than the C20′ urea 9 / increase in potency relative to vinblastine: cell growth inhibition; for increase in potency relative to vinblastine: vinblastine-sensitive lines. The procedure: as §1, §2, §3

Where [8] appears, read: 72 hours incubation, phosphatase assay, read-out: IC50, HCT116.
[9] abbreviates: listed beside % displacement in second TABLE 5, read-out: IC50 (nM, HCT116).

In the case of `CC[C@]1(O)C[C@@H]2CN(CCc3c([nH]c4ccccc34)[C@@](C(=O)OC)(c3cc4c(cc3OC)N(C)[C@H]3[C@@](O)(C(=O)OC)[C@H](OC(C)=O)[C@]5(CC)C=CCN6CC[C@]43[C@@H]65)C2)C1` [Compound 1, Vinblastine, reference compound], in test [1], the IC50 is 600 nM. In addition, the “% displacement of BODIPY-vinblastine bound to tubulin” value in the test with tubulin was determined as 31 ± 9%; with tubulin (listed as vinblastine), 31%.
Take `CC[C@]1(NC(=O)N2CCCC2)C[C@H]2CN(CCc3c([nH]c4ccccc34)[C@@](C(=O)OC)(c3cc4c(cc3OC)N(C)[C@H]3[C@@](O)(C(=O)OC)[C@H](OC(C)=O)[C@]5(CC)C=CCN6CC[C@]43[C@@H]65)C2)C1` [Compound 8]: the IC50 is 50 nM in test [1], 0.7 nM in test [2], 0.72 nM in test [3] and 0.7 nM in test [3] (listed as drawing 14).
In the case of `CC[C@]1(NC(=O)N2Cc3ccccc3C2)C[C@H]2CN(CCc3c([nH]c4ccccc34)[C@@](C(=O)OC)(c3cc4c(cc3OC)N(C)[C@H]3[C@@](O)(C(=O)OC)[C@H](OC(C)=O)[C@]5(CC)C=CCN6CC[C@]43[C@@H]65)C2)C1` [Compound 9], the IC50 in test [1] was 7.5 nM; in test [1] (listed as drawing 15), 4 nM; in test [2] it was 0.51 nM; in test [3], 0.6 nM; in test [3] (listed as drawing 15), 0.5 nM.
As for `CC[C@]1(NC(=O)N2CCCCC2)C[C@H]2CN(CCc3c([nH]c4ccccc34)[C@@](C(=O)OC)(c3cc4c(cc3OC)N(C)[C@H]3[C@@](O)(C(=O)OC)[C@H](OC(C)=O)[C@]5(CC)C=CCN6CC[C@]43[C@@H]65)C2)C1` [Compound 23], the IC50 in test [1] was 50 nM; in test [2], 5.5 nM; in test [3], 3.9 nM.
Consider `CC[C@]1(NC(=O)N2Cc3ccc(OC)cc3C2)C[C@H]2CN(CCc3c([nH]c4ccccc34)[C@@](C(=O)OC)(c3cc4c(cc3OC)N(C)[C@H]3[C@@](O)(C(=O)OC)[C@H](OC(C)=O)[C@]5(CC)C=CCN6CC[C@]43[C@@H]65)C2)C1` [Compound 35], for which the concentration for half-maximal inhibition (IC50) is 8.6 nM in test [1], 0.48 nM in test [2] and 0.54 nM in test [3].
Consider `CC[C@]1(NC(=O)N2Cc3ccc(NC(=O)c4ccccc4)cc3C2)C[C@H]2CN(CCc3c([nH]c4ccccc34)[C@@](C(=O)OC)(c3cc4c(cc3OC)N(C)[C@H]3[C@@](O)(C(=O)OC)[C@H](OC(C)=O)[C@]5(CC)C=CCN6CC[C@]43[C@@H]65)C2)C1` [Compound 50], for which the IC50 in test [4] is 0.54 nM; in test [5] (setting [8]) it was 0.62 nM; in test [6], 13 nM; in test [7] (L1210 and HCT116, range over both lines, read-out: IC50's against vinblastine-sensitive tumor cell lines) it was 0.5 to 0.6 nM.
For `CC[C@]1(NC(=O)N2Cc3ccc(NC(=O)c4ccncn4)cc3C2)C[C@H]2CN(CCc3c([nH]c4ccccc34)[C@@](C(=O)OC)(c3cc4c(cc3OC)N(C)[C@H]3[C@@](O)(C(=O)OC)[C@H](OC(C)=O)[C@]5(CC)C=CCN6CC[C@]43[C@@H]65)C2)C1` [Compound 58], the IC50 in test [4] is 0.062 nM; in test [5] (setting [8]), 0.074 nM; in test [5] (setting [9]) it was 0.07 nM; in test [6] it was 0.88 nM. Besides, the “% displacement of BODIPY-vinblastine bound to tubulin” value with tubulin is 100% and 105 ± 5%. In addition, in test [6], the “increase in potency relative to vinblastine, HCT116/VM46” value was determined as 700 fold. The “more potent than the C20′ urea 9” value in test [7] came to 10 fold. Besides, the “increase in potency relative to vinblastine” value in test [7] is recorded as 100 fold.
In the case of `CC[C@]1(NC(=O)N2Cc3ccc(NC(=O)c4cnccn4)cc3C2)C[C@H]2CN(CCc3c([nH]c4ccccc34)[C@@](C(=O)OC)(c3cc4c(cc3OC)N(C)[C@H]3[C@@](O)(C(=O)OC)[C@H](OC(C)=O)[C@]5(CC)C=CCN6CC[C@]43[C@@H]65)C2)C1` [Compound 60], the IC50 in test [4] came out at 0.059 nM; in test [5] (setting [8]), 0.075 nM; in test [5] (setting [9]) it was 0.07 nM; in test [6], 0.83 nM. For the same compound, the “% displacement of BODIPY-vinblastine bound to tubulin” value in the test with tubulin was 100% and 104 ± 12%. Further, the “increase in potency relative to vinblastine, HCT116/VM46” value in test [6] was found to be 700 fold. The “more potent than the C20′ urea 9” value in test [7] worked out at 10 fold. Further, the “increase in potency relative to vinblastine” value in test [7] is reported as 100 fold.
As for `CC[C@]1(NC(=O)N2Cc3ccc(NC(=O)c4cccnn4)cc3C2)C[C@H]2CN(CCc3c([nH]c4ccccc34)[C@@](C(=O)OC)(c3cc4c(cc3OC)N(C)[C@H]3[C@@](O)(C(=O)OC)[C@H](OC(C)=O)[C@]5(CC)C=CCN6CC[C@]43[C@@H]65)C2)C1` [Compound 61], the IC50 in test [4] was determined as 0.059 nM; in test [5] (setting [8]), 0.067 nM; in test [5] (setting [9]), 0.07 nM; in test [6] it was 0.87 nM. Moreover, the “% displacement of BODIPY-vinblastine bound to tubulin” value in the test with tubulin is 100% and 101 ± 4%. For the same compound, the “increase in potency relative to vinblastine, HCT116/VM46” value in test [6] amounted to 700 fold. For the same compound, the “more potent than the C20′ urea 9” value in test [7] came to 10 fold. Besides, in test [7], the “increase in potency relative to vinblastine” value worked out at 100 fold.
Take `CC[C@]1(O)C[C@H]2CN(CCc3c([nH]c4ccc(F)cc34)[C@@](C(=O)OC)(c3cc4c(cc3OC)N(C)[C@H]3[C@@](O)(C(=O)OC)[C@H](OC(C)=O)[C@]5(CC)C=CCN6CC[C@]43[C@@H]65)C2)C1` [Compound 71, 10′-fluorovinblastine, reference compound]: in test [5] (setting [9]), the IC50 came to 0.8 nM. In the test on tubulin, the “% displacement of BODIPY-vinblastine bound to tubulin” value turned out to be 48 ± 7%. Besides, the “increase in potency relative to vinblastine” value in test [7] is reported as “roughly 10 fold”.

One may read the IC50 as the concentration at which inhibition is half-maximal.
